In the OPERA property sets (Mansouri et al. 2018):
Converted amounts (≈) assume the structure as drawn. Where a SMILES comes first, the peptide text is derived from it.

conditions: not given

Compared with CN1CCN(CCn2cncc2[N+](=O)[O-])CC1, Cn1c(CC(=O)O)cnc1C(=O)c1ccc([N+](=O)[O-])cc1 is higher in logP: -0.2 for the first, 0.86 for the second.

CC(=O)OCCOCn1cnc2c(=O)[nH]c(N)nc21 and CC(=O)Nc1ncc2ncn(COCCOC(C)=O)c2n1 are within 0.2 log units of each other in logP: -1.07 for the first, -1.05 for the second.

Going from ON=C1CCCCC1 to CCC1(C2=CCCCCC2)C(=O)NC(=O)N(C)C1=O (stereo not given), the logP rises from 0.84 to 2.82.

Compared with COP(=S)(OC)Oc1ccccc1, COc1cccc(N=C=S)c1 is higher in logP: 3.03 for the first, 3.68 for the second.

Compared with CC(=O)OCN1C(=O)C=C(C)C1=O, CC(=O)OCn1ncc2c(O)ncnc21 is lower in logP: 0.45 for the first, -0.35 for the second.

Going from CN1CC(C(=O)O)CC1=O (stereo not given) to CCn1cc(C(=O)O)c(=O)c2cc(F)c(N3CCNC(C)C3)cc21 (stereo not given), the logP rises from -1.5 to 0.34.

First: CCCCN=C=S
Second: CCCCCCNC(=S)NC
The logP of the first is higher: 2.92 for the first, 2.31 for the second.

First: NS(=O)(=O)c1nn2c(=Nc3cccc(F)c3)snc2s1
Second: O=C(Nc1ccc(Cl)cc1)c1cccc([N+](=O)[O-])c1O
The logP of the first is higher: 3.06 for the first, 2.16 for the second.

CCOc1cc(C=O)ccc1O and CCOC(=O)CCn1nnc2ccccc21 are within 0.2 log units of each other in logP: 1.58 for the first, 1.6 for the second.

Compared with Nc1ncc2ncn(COCCO)c2n1, CCN(CC)C(=O)CCC(=O)OCn1ncc2c(O)ncnc21 is higher in logP: -1.08 for the first, -0.22 for the second.

Going from COc1ccc(Nc2ccnc3cc(Cl)ccc23)cc1 to COc1ccc(CNC(=O)C(=O)c2c[nH]c3ccc([N+](=O)[O-])cc23)cc1, the logP falls from 4.94 to 2.17.

Going from CCc1ccc(C=[N+]([O-])C(C)(C)C)cc1 to CC(C)(C)C(O)C(Oc1ccc(Cl)cc1)n1cncn1 (stereo not given), the logP rises from 2.19 to 2.9.

Going from CCCN1CCOC2c3cc(O)ccc3CCC21 (stereo not given) to CN1CC=C(c2cccc(N)c2)CC1, the logP falls from 2.44 to 1.47.

Compared with CCCCc1oc(C)cc(=O)c1O, Cc1c(O)c(=O)ccn1CCO is lower in logP: 1.92 for the first, -1.1 for the second.

First: O=P(O)(O)CCCl
Second: CCCCCOC(C)=O
The logP of the first is lower: -0.22 for the first, 2.3 for the second.

Going from NC(=O)c1ccc(N)nc1 to CSc1ccc(C(N)=S)cc1, the logP rises from 0.7 to 2.01.

First: CCCCCCOc1ccc(N)cc1
Second: Cc1cccc(OCCN(C)C)c1
The logP of the first is higher: 3.64 for the first, 2.05 for the second.

Compared with CC1=NS(=O)(=O)c2cccnc2N1, Cc1cnc2c(C(=O)O)c(Cl)ccc2c1 is higher in logP: -0.25 for the first, 0.78 for the second.

Going from O=c1cc(CO)occ1O to CC(C)n1ccc(=O)c(O)c1, the logP rises from -0.64 to -0.02.

COc1ccc2cc(CCC(C)=O)ccc2c1 and O=C(O)CCOc1cccc2ccccc12 are within 0.2 log units of each other in logP: 3.08 for the first, 3 for the second.

First: CCCSc1ccc2[nH]c(NC(=O)OC)nc2c1
Second: CCn1cc(C(=O)NC(C(=O)OC)C(C)C)c(=O)c2ccc(C)nc21 (stereo not given)
The logP of the first is lower: 3.07 for the first, 3.61 for the second.

Compared with C=CCOCCO, CCCOC(=O)CCC(=O)OCCC is higher in logP: -0.1 for the first, 2.16 for the second.

Compared with CC(=O)N[C@@H](CC(C)C)C(=O)N[C@H](C(=O)N[C@@H](CC(C)C)C(N)=O)[C@@H](C)O (Ac-Leu-Thr-Leu-NH2), NC(=O)c1ccccc1NCC(O)CO (stereo not given) is lower in logP: 0.24 for the first, -0.8 for the second.

Compared with Clc1c(Cl)c(Cl)c2c(oc3c(Cl)c(Cl)c(Cl)c(Cl)c32)c1Cl, Cc1c(Cl)cc(C(C)C)c(Cl)c1Cl is lower in logP: 8.6 for the first, 6.2 for the second.

Compared with CCNC(N)=S, CCCC(CCC)=NNC(N)=Nc1ccccc1 is higher in logP: -0.21 for the first, 2.33 for the second.

First: O=[N+]([O-])c1cc(N(CCO)CCO)ccc1NCCO
Second: Cc1ccc(Cl)cc1[N+](=O)[O-]
The logP of the first is lower: 1.7 for the first, 3.05 for the second.

Going from CCN(CC)CCCN=c1cc2n(-c3ccc(Cl)cc3)c3ccccc3nc-2cc1Nc1ccc(Cl)cc1 to CN(C)c1cnn(-c2ccccc2)c(=O)c1Cl, the logP falls from 8.05 to 1.55.

Going from CC(=O)OC(c1ccc(Cl)c(Cl)c1)C(Cl)(Cl)Cl (stereo not given) to COc1cc(Cl)c(Cl)c(Cl)c1, the logP falls from 4.92 to 4.22.

Compared with BrCBr, OCC1CO1 (stereo not given) is lower in logP: 1.7 for the first, -0.95 for the second.

First: Nc1ccc2c(c1)Cc1cc(Br)ccc1-2
Second: Cc1cc(Cc2c(Cl)cccc2Cl)c(Cl)cc1Cl
The logP of the first is lower: 3.92 for the first, 6.73 for the second.

First: c1ccc2c(c1)[nH]c1cnccc12
Second: O=c1c(Cl)c(Cl)cnn1-c1ccccc1
The logP of the first is higher: 3.17 for the first, 2.09 for the second.

First: CSc1ccc(C=C(C#N)C#N)o1
Second: CCN1CC=C(c2ccccc2)CC1
The logP of the first is lower: 2.45 for the first, 3.18 for the second.

First: CCCOC(=O)c1cc(=O)[nH]c(=O)[nH]1
Second: N[C@@H](Cc1cnc[nH]1)C(=O)O
The logP of the first is higher: 1.1 for the first, -3.32 for the second.

Going from CC1CCCCC1O (stereo not given) to O=C1CCC2CCC(=O)N12, the logP falls from 1.82 to -1.11.

Compared with ClCC1(CCl)C2C(Cl)C(Cl)(Cl)C1(C(Cl)Cl)CC2(Cl)Cl (stereo not given), ClCC1(C(Cl)Cl)C2CC(Cl)(Cl)C1(C(Cl)Cl)C(Cl)C2Cl (stereo not given) is lower in logP: 6.26 for the first, 5.96 for the second.

First: Cc1cc(C)cc(NCc2cnc3nc(N)nc(N)c3c2C)c1
Second: Cc1nc(N)c2ncn([C@@H]3O[C@H](CO)C[C@@H]3F)c2n1
The logP of the first is higher: 2.11 for the first, 0.12 for the second.

Going from O=S(=O)(C(Cl)(Cl)Cl)C(Cl)(Cl)Cl to ClC=C1C2CC(C(Cl)C2Cl)C1(CCl)C(Cl)Cl (stereo not given), the logP rises from 3.3 to 5.45.

For CC1=CCC(=C(C)C)CC1, the logP was 4.47.

Going from CCc1ccc2cc3ccccc3cc2c1 to Nc1ccc(Cc2ccc(N)c(Cl)c2)cc1Cl, the solubility rises from 0.00013 mM (≈ 0.0268 µg/mL) to 0.052 mM (≈ 13.9 µg/mL) (400-fold).

Compared with Oc1c(Cl)ccc(Cl)c1Cl, CCNC(=O)Nc1ncc([N+](=O)[O-])s1 is 1.6-fold lower in solubility: 2.28 mM (≈ 450 µg/mL) for the first, 1.39 mM (≈ 300 µg/mL) for the second.

With CCC(C)O (stereo not given) the log10 OH rate constant (cm³/molecule/s) was -11.

same assay, conditions: 20 °C

Going from Cc1cncc(C)c1 to CCc1ccc(C)nc1, the solubility falls from 308 mM (≈ 33000 µg/mL) to 99 mM (≈ 12000 µg/mL) (3.1-fold).

First: CCCCOCC1CO1 (stereo not given)
Second: O=c1c(Cl)c(Cl)cnn1-c1ccccc1
The solubility of the first is 370-fold higher: 154 mM (≈ 20000 µg/mL) for the first, 0.415 mM (≈ 100 µg/mL) for the second.

same assay, conditions: 23 °C

Molecule CC1=CCC(=C(C)C)CC1 has a solubility of 0.0697 mM (≈ 9.5 µg/mL).

same assay, conditions: 23.0 °C

In the case of CC1=CC[C@@H]2[C@H]3[C@@H](C(C)C)CC[C@]2(C)[C@@H]13, the log10 OH rate constant (cm³/molecule/s) is reported as -10.

same assay, conditions: 24.0 °C

Clc1cccc(-c2cccc(Cl)c2)c1 showed a log10 OH rate constant (cm³/molecule/s) of -11.4.

same assay, conditions: 25 °C

CCCCCC1CCCC1 and CCCCC(C)CCC (stereo not given) are within 1.5-fold of each other in solubility: 0.00082 mM (≈ 0.115 µg/mL) for the first, 0.000897 mM (≈ 0.115 µg/mL) for the second.

First: CCCCOC(=O)c1ccccc1
Second: CC(C)(C)NCC(O)COc1cccc2c1C[C@H](O)[C@H](O)C2 (stereo not given in full)
The solubility of the first is 81-fold lower: 0.331 mM (≈ 59 µg/mL) for the first, 26.9 mM (≈ 8330 µg/mL) for the second.

First: ClC/C=C/CCl
Second: CCOC(=O)COc1cc(Cl)c(Cl)cc1Cl
The solubility of the first is 370-fold higher: 5.27 mM (≈ 659 µg/mL) for the first, 0.0141 mM (≈ 4.01 µg/mL) for the second.

Compared with Nc1ncc2ncn(COCCO)c2n1, Nc1ccc(Cl)cc1 is 2.7-fold lower in solubility: 83.7 mM (≈ 17500 µg/mL) for the first, 30.6 mM (≈ 3900 µg/mL) for the second.

First: CCC(=O)OCC(C)C
Second: CC(C)C(O)C(C)(C)CO (stereo not given)
The solubility of the first is 9.9-fold lower: 13.1 mM (≈ 1700 µg/mL) for the first, 130 mM (≈ 19000 µg/mL) for the second.

First: Oc1cc(Cl)c(Cl)cc1Cl
Second: CN(C)C(=O)Nc1ccc(Cl)c(Cl)c1
The solubility of the first is 34-fold higher: 6.08 mM (≈ 1200 µg/mL) for the first, 0.18 mM (≈ 42 µg/mL) for the second.

Compared with Clc1c(Cl)c(Cl)c2c(oc3c(Cl)c(Cl)c(Cl)c(Cl)c32)c1Cl, Clc1cccc(Cl)c1 is far higher in solubility: 2.61e-09 mM (≈ 1.16e-06 µg/mL) for the first, 0.85 mM (≈ 125 µg/mL) for the second.

Going from CCOC to COC, the solubility rises from 832 mM (≈ 50000 µg/mL) to 7660 mM (≈ 353000 µg/mL) (9.2-fold).

Compared with CCC1CO1 (stereo not given), CC(C)(C)c1ccc(O)c(O)c1 is 87-fold lower in solubility: 1040 mM (≈ 75000 µg/mL) for the first, 12 mM (≈ 2000 µg/mL) for the second.

With c1ccc2c(c1)ccc1ccc3ccccc3c12 the solubility was 1.51e-05 mM (≈ 0.00345 µg/mL).

same assay, conditions: 25.0 °C

Going from CC(C)c1ccc(NC(=O)N(C)C)cc1 to O=C1C=CC(=O)c2ccccc21, the log10 OH rate constant (cm³/molecule/s) falls from -10.9 to -11.5.

First: CC(=O)O[C@@H]1CC2CCC1(C)C2(C)C (stereo not given in full)
Second: C=C(C)OC(C)=O
The log10 OH rate constant (cm³/molecule/s) of the first is lower: -10.9 for the first, -10.2 for the second.

Compared with CCC(C)(C)OC, CCNc1nc(Cl)nc(NC(C)(C)C)n1 is higher in log10 OH rate constant (cm³/molecule/s): -11.3 for the first, -11 for the second.

First: BrCBr
Second: ClCBr
The log10 OH rate constant (cm³/molecule/s) of the first is higher: -12.9 for the first, -13.1 for the second.

Compared with CCCCl, CCNC(=O)OCC is higher in log10 OH rate constant (cm³/molecule/s): -12 for the first, -10.8 for the second.

First: CC(Cl)C(C)Cl (stereo not given)
Second: CC1=CCC(=C(C)C)CC1
The log10 OH rate constant (cm³/molecule/s) of the first is lower: -12 for the first, -9.65 for the second.

same assay, conditions: 27.0 °C

Molecule Oc1ccccc1O has a log10 OH rate constant (cm³/molecule/s) of -9.98.

same assay, conditions: 30 °C

BrCBr showed a solubility of 68.5 mM (≈ 11900 µg/mL).
